Test results reported in paper PMC5318888, “SAMHD1 enhances nucleoside-analogue efficacy against HIV-1 in myeloid cells” (Scientific Reports, 2017).

Biological target: T1, SAMHD1 (Homo sapiens, UniProt Q9Y3Z3)
T1 construct: The final concentrations were 100 nM SAMHD1(115–626), 10 nM Ppx1; strep-tag; made in house
Assay: SAMHD1 triphosphohydrolase continuous coupled-enzyme assay (MDCC-PBP phosphate biosensor, Ppx1)
Format: biochemical
Conditions: for inhibition of SAMHD1 GTP-activated TTP hydrolysis / activation of SAMHD1 TTP hydrolysis: 0.3 mM TTP; for inhibition of SAMHD1 GTP-activated TTP hydrolysis: 0.1 mM GTP; for inhibition of SAMHD1 GTP-activated TTP hydrolysis / hydrolysis by SAMHD1 (substrate): 0.3 mM analogue triphosphate; for activation of SAMHD1 TTP hydrolysis: 0.1 mM analogue triphosphate as activator; for hydrolysis by SAMHD1 (substrate): without and with 0.1 mM GTP
Text: SAMHD1 hydrolysis, activation and inhibition by nucleotide analogues was quantified using a continuous coupled assay employing the fluorescent phosphate biosensor MDCC-PBP to measure phosphate release from combined SAMHD1 triphosphohydrolase and S. cerevisiae Ppx1 exopolyphosphatase activity, described previously. SAMHD1 and Ppx1 were expressed as strep-tagged fusion proteins and purified as described previously. Didanosine triphosphate (ddI-TP) and dideoxy ATP (ddATP) were from Trilink Biotechnologies, Stavudine triphosphate (d4T-TP) was from Jena biosciences and Chemcyte. Abacavir triphosphate and Carbovir triphosphate were chemically synthesised in house from abacavir and carbovir as described above. Experiments were performed in 20 μL reaction volumes in 384-well low-protein-binding microplates (Corning, USA). In typical experiments, solutions containing SAMHD1, Ppx1, MDCC-PBP and activator (GTP, ddI-TP or d4T-TP), or activator plus inhibitor, were incubated for 5 min in assay buffer (20 mM Tris pH 8.0, 150 mM NaCl, 5 mM MgCl2 and 2 mM TCEP) at 25 °C before the reaction was initiated by the addition of substrate (TTP, ddI-TP or d4T-TP). The final concentrations were 100 nM SAMHD1(115–626), 10 nM Ppx1, 2.5 μM BSA, 40 μM MDCC-PBP (80 μM in ABC-TP and CBV-TP assays). Activator, substrate and inhibitor were added at concentrations described below. The fluorescence intensity increase resulting from the phosphate-product binding to MDCC-PBP was recorded at 430 nm excitation and 465 nm emission over 10–30 min in a Clariostar multiwell plate reader (BMG). Steady-state rates were obtained from the fluorescence time courses by fitting a linear function with maximal slope using the Mars software (BMG). Apparent dissociation constant of ddI-TP binding (KS), catalytic constant (kcat), maximal rate (kmax) and the ddI-TP concentration at half maximal activation (Ka) were determined by nonlinear least squares fitting using a Hill-function in the software package Grafit 7.0.3 (Erithacus software, UK). All measurements were performed at least in triplicate and data are represented as mean ± SEM.

[1] = 1 mM TTP, varying ddI-TP, lower estimate
[2] = Hill equation fit, 0.2 mM GTP, mean ± SEM

T1 sequence (Q9Y3Z3 115-626): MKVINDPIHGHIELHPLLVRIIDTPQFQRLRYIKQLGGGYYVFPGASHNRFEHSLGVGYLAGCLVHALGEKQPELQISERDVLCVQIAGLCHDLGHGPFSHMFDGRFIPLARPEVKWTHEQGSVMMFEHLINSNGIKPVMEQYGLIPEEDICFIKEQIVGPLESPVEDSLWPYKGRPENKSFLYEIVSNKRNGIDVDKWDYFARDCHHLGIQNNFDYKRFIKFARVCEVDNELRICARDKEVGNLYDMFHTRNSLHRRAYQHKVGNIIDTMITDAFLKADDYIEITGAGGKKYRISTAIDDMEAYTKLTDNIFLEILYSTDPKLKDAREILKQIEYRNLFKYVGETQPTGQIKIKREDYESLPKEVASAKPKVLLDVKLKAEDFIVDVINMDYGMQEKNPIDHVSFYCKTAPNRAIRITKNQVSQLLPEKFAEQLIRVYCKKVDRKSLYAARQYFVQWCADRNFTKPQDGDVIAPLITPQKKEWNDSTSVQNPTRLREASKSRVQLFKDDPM

O=c1[nH]cnc2c1ncn2[C@H]1CC[C@@H](COP(=O)(O)OP(=O)(O)OP(=O)(O)O)O1 [ddI-TP, didanosine triphosphate]
inhibition of SAMHD1 GTP-activated TTP hydrolysis: no significant inhibitory effects
activation of SAMHD1 TTP hydrolysis: activates SAMHD1 triphosphohydrolase activity, but to a much lesser degree than the natural activator, GTP
hydrolysis by SAMHD1 (substrate): hydrolysed by SAMHD1 even in the absence of GTP
increase of ddI-TP hydrolysis in the presence of activating GTP (0.3 mM ddI-TP, 0.1 mM GTP vs no GTP): three-fold
Ka, ddI-TP concentration at half maximal activation of TTP hydrolysis [1]: > 300 µM
maximal rate kmax of TTP hydrolysis activated by ddI-TP [1]: > 0.1 s⁻¹
apparent binding constant KS of ddI-TP hydrolysis (Hill equation fit, 0.2 mM GTP (saturating activator), mean ± SEM): 226 ± 12 µM
Hill coefficient n of ddI-TP hydrolysis [2]: 1.7 ± 0.1
catalytic constant kcat of ddI-TP hydrolysis [2]: 0.24 ± 0.04 s⁻¹
ddI-TP hydrolysis rate relative to TTP hydrolysis rate (fold slower) (in the presence of 0.1 mM GTP): around six-fold

Nc1nc(NC2CC2)c2ncn([C@H]3C=C[C@@H](COP(=O)(O)OP(=O)(O)OP(=O)(O)O)C3)c2n1 [ABC-TP, abacavir-5′-triphosphate]
inhibition of SAMHD1 GTP-activated TTP hydrolysis: neither ABC-TP nor CBV-TP displayed any activation or inhibition of SAMHD1
activation of SAMHD1 TTP hydrolysis: neither ABC-TP nor CBV-TP displayed any activation or inhibition of SAMHD1
hydrolysis by SAMHD1 (substrate): not hydrolysed by SAMHD1

Nc1ncnc2c1ncn2[C@H]1CC[C@@H](CO[P@@](=O)(O)O[P@](=O)(O)OP(=O)(O)O)O1 [ddATP, dideoxy ATP]
inhibition of SAMHD1 GTP-activated TTP hydrolysis: no measurable activation or inhibition
activation of SAMHD1 TTP hydrolysis: no measurable activation or inhibition
hydrolysis by SAMHD1 (substrate): no hydrolysis by SAMHD1

Cc1cn([C@H]2C=C[C@@H](COP(=O)(O)OP(=O)(O)OP(=O)(O)O)O2)c(=O)[nH]c1=O [d4T-TP, stavudine triphosphate]
inhibition of SAMHD1 GTP-activated TTP hydrolysis: not a SAMHD1 inhibitor or activator
activation of SAMHD1 TTP hydrolysis: not a SAMHD1 inhibitor or activator
hydrolysis by SAMHD1 (substrate): little or no hydrolytic activity

Nc1nc(=O)c2ncn([C@H]3C=C[C@@H](COP(=O)(O)OP(=O)(O)OP(=O)(O)O)C3)c2[nH]1 [CBV-TP, Carbovir 5′-triphosphate]
inhibition of SAMHD1 GTP-activated TTP hydrolysis: neither ABC-TP nor CBV-TP displayed any activation or inhibition of SAMHD1
activation of SAMHD1 TTP hydrolysis: neither ABC-TP nor CBV-TP displayed any activation or inhibition of SAMHD1
hydrolysis by SAMHD1 (substrate): not hydrolysed by SAMHD1
